In PMC8795987, “Time-dependent inhibition of CYP3A4-mediated midazolam metabolism by macrolide antibiotics in CYP3A4 genetic variants: Comparison with testosterone metabolism” (International Journal of Clinical Pharmacology and …, 2021):

Assays:
[1] = Clinical plasma concentration; format: in vivo, human; settings: for Cmax,u (maximum plasma unbound concentration in the clinical settings): Cmax × fu; for Cmax: oral, human plasma, converted from μg/mL
[2] = tested on: five CYP3A4 genetic variants (Wt, .2, .7, .16, .18); assay: Mechanism-based inhibition of midazolam 1′-hydroxylation, results stated across the five variants; format: biochemical, human; settings: all CYP3A4 variants; preincubation with NADPH-generating system
Procedure: (§1) Next, 4 µM midazolam solution (final concentration at incubation: 2 µM) together with NADPH-generating system solution and 300 mM K^+ phosphate buffer containing 0.3 mM EDTA were added to start the metabolic reaction for 20 minutes at 37 °C. The reaction was terminated by the addition of 450 µL of ice-cold methanol, followed by 50 µL of 0.1 µM nitrazepam as an internal standard. The mixture was then centrifuged at 3,500 ×g for 20 minutes at 4 °C, and the concentration of 1′-hydroxymidazolam in the supernatant was determined using HPLC-ultraviolet (UV) method described below.
(§2) The HPLC system consisted of a pump ([…]; Shimadzu, Kyoto, Japan), an UV-detector SPD-10AD (Shimadzu), and an octadecylsilyl column (Cosmosil, 5C18-MS-II, 4.6×250 mm, ODS; Nacalai Tesque, Kyoto, Japan). The mobile phase consisted of 50% methanol (v/v) and was pumped at a rate of 1.5 mL/min. The UV wavelength was set at 245 nm.
(§3) Based on the static model, residual enzyme activity (ε) under the steady state is determined by the inactivation rate by the MBI inhibitor (k inact ([I])) and the turnover rate in the absence of inhibitor (k deg), and calculated by using the following Equation 2.

[3] = tested on: CYP3A4 WT, .2, .7, .16, .18; assay: as above; format: biochemical, human; settings: human, pH 7.4, probe midazolam 2 µM (1′-hydroxylation), range over the five variants
Procedure: as §1, §2, §3

CYP3A4 genetic variants = assay: Static model estimate of residual enzyme activity and midazolam AUC ratio in CYP3A4 genetic variants; set-up: species or system human; settings: all genetic variants; increase in AUC of 2- to < 5-fold; estimated
Procedure: as §3

CYP3A4 WT = target: T1, CYP3A4 WT (Homo sapiens, UniProt P08684); assay: Mechanism-based inhibition of midazolam 1′-hydroxylation by recombinant CYP3A4 WT; format: biochemical; settings: substrate midazolam, geometric mean (–1S.D. ~ +1S.D.), n = 5, read-out: K I
T1 construct: made in house; host or cells: Escherichia coli
T1 sequence (P08684 whole entry): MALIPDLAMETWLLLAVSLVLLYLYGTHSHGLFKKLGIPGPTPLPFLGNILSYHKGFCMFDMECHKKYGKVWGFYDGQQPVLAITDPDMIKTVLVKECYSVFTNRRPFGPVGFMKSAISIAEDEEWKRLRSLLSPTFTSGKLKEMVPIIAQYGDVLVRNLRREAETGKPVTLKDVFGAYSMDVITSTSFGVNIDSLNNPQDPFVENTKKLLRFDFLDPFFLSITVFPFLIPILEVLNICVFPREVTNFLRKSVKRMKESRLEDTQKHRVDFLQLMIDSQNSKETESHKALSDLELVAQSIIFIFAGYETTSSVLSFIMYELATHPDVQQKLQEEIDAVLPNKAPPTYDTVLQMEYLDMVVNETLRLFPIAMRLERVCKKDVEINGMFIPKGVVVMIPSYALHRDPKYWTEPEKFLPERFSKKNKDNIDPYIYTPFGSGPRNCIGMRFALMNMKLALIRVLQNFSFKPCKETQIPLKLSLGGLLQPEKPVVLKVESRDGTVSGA
Procedure: (§4) 1′-Hydroxymidazolam was purchased from Biosciences-Discovery Labware (Tokyo, Japan). The membrane fraction of CYP3A4 (WT, .2, .7, .16, .18) expressed by Escherichia coli were prepared according to our previously reported method. All other chemicals and reagents of analytical and high-performance liquid chromatography (HPLC) grade were obtained from commercial sources.
as §1, §2

CYP3A4.16 = target: T2, CYP3A4.16 (Homo sapiens, UniProt P08684, T185S); assay: Mechanism-based inhibition of midazolam 1′-hydroxylation by recombinant CYP3A4.16; format: biochemical; settings: substrate midazolam, geometric mean (–1S.D. ~ +1S.D.), n = 5
T2 construct: made in house; host or cells: Escherichia coli
T2 sequence (P08684 whole entry T185S): as the sequence (P08684 whole entry) above, with T185S counted along it
Procedure: as §4, §1, §2

CYP3A4.7 = target: T3, CYP3A4.7 (Homo sapiens, UniProt P08684, G56D); assay: Mechanism-based inhibition of midazolam 1′-hydroxylation by recombinant CYP3A4.7; format: biochemical; settings: substrate midazolam, geometric mean (–1S.D. ~ +1S.D.), n = 5
T3 construct: made in house; host or cells: Escherichia coli
T3 sequence (P08684 whole entry G56D): as the sequence (P08684 whole entry) above, with G56D counted along it
Procedure: as §4, §1, §2

CYP3A4.2 = target: T4, CYP3A4.2 (Homo sapiens, UniProt P08684, S222P); assay: Mechanism-based inhibition of midazolam 1′-hydroxylation by recombinant CYP3A4.2; format: biochemical; settings: substrate midazolam, geometric mean (–1S.D. ~ +1S.D.), n = 5
T4 construct: made in house; host or cells: Escherichia coli
T4 sequence (P08684 whole entry S222P): as the sequence (P08684 whole entry) above, with S222P counted along it
Procedure: as §4, §1, §2

[4] = erythromycin; cited from earlier work
CYP3A = settings: cited from earlier work

Row | Compound | Cmax,u (maximum plasma unbound concentration in the clinical settings) [1] | Cmax [1] | inhibition of 1′-hydroxylation of midazolam by all CYP3A4 variants [2] | Ki ([3]; in vitro data in the present study, substrate midazolam, read-out: KI (range among variants)) | KI (inactivation) ([3]; product of K I and fu,mic, read-out: KI,u (unbound concentration of inhibitor that confers half-maximal rate of inactivation)) | extent of DDI category based on the FDA guideline (CYP3A4 genetic variants) | KI (inactivator concentration giving half-maximal inactivation rate) (CYP3A4 WT) | Ki (CYP3A4.16) | Ki (CYP3A4.7) | Ki (CYP3A4.2) | fu,mic (estimated unbound fraction in microsomal preparation) [4] | fm,CYP3A (contribution of 1-hydroxylation by CYP3A to overall systemic elimination) (CYP3A)
1 | CC[C@H]1OC(=O)[C@H](C)[C@@H](O[C@H]2C[C@@](C)(OC)[C@@H](O)[C@H](C)O2)[C@H](C)[C@@H](O[C@@H]2O[C@H](C)C[C@H](N(C)C)[C@H]2O)[C@](C)(OC)C[C@@H](C)C(=O)[C@H](C)[C@@H](O)[C@]1(C)O [Clarithromycin] | 775 nM | 1550 nM | time-dependent manner | 689 to 2690 nM | 590 to 2310 nM | moderate |  |  |  |  |  | 
2 | CC[C@H]1OC(=O)[C@H](C)[C@@H](O[C@H]2C[C@@](C)(OC)[C@@H](O)[C@H](C)O2)[C@H](C)[C@@H](O[C@@H]2O[C@H](C)C[C@H](N(C)C)[C@H]2O)[C@](C)(O)C[C@@H](C)C(=O)[C@H](C)[C@@H](O)[C@]1(C)O [Erythromycin] | 721 nM | 1120 nM |  |  |  |  | 677 nM | 1820 nM | 512 nM | 1140 nM | 0.857 | 
3 | Cc1ncc2n1-c1ccc(Cl)cc1C(c1ccccc1F)=NC2 [midazolam, Midazolam] |  |  |  |  |  |  |  |  |  |  |  | 98%
